The values that follow come from US20170190691A1, “NOVEL 5-ACYLSULFANYL-HISTIDINE COMPOUNDS AS PRECURSORS OF THE CORRESPONDING 5-SULFANYLHISTIDINES AND THEIR DISULFIDES” (TETRAGEDRON, priority 2014, published 2017).

What all share (format): physicochemical
Series [1] in a line: Analytical monitoring by HPLC of the hydrolysis of compound 3 and oxidation in situ into compound 27, aqueous fraction at 40° C. The following applies: water; for % hydrolysis: HPLC. As to the method:
e) Analytical monitoring by HPLC of the hydrolysis of the 5-acylsulfanyl compound 3 and oxidation in situ into compound 27
Compound 3 is prepared and purified by column as described in Example 5, using an ethyl acetate/ethanol gradient, followed by elution with water. The aqueous fraction containing the pure compound 3 is placed in a water bath at 40° C. and heated under stirring for two days. Samples are collected every hour, and the mixture is analyzed by HPLC.

Series [2] is described as follows: Analytical monitoring by 1H NMR and HPLC-ELSD of the hydrolysis of compound 3 into compound 26 in the presence of a thiol (3-mercaptopropionic acid), D2O, 40° C. The following applies: 5 equivalents 3-mercaptopropionic acid. The procedure:
b) Analytical monitoring by ^1H NMR of the hydrolysis of the 5-acylsulfanyl compound 3 into the compound L-5-sulfanyl-α,N,N,N(trimethyl)-histidine (Compound 26) in the presence of a thiol
Compound 3 is prepared and purified by column as described in Example 5. 100 mg (0.33 mmoles, 1 eq.) of compound 3 are dissolved in 2.4 mL of D2O. 172 mg of 3-mercaptopropionic acid (142 μL, 5 equivalents) are added, and the solution is heated at 40° C. The conversion is monitored by ^1H NMR and by HPLC-ELSD. The yield of hydrolysis of compound 3 is 90% after 3 h (monitored by ^1H NMR). Compound 26 is formed after 3 h 30 with a yield of 97% (HPLC-ELSD).

A short description of series [3]: Analytical monitoring by 1H NMR of the hydrolysis of compound 3 and oxidation in situ into compound 27, D2O at ambient temperature. The following applies: for % hydrolysis: 1H NMR. As to the method: f) Analytical monitoring by ^1H NMR of the hydrolysis of the 5-acylsulfanyl compound 3 and oxidation in situ into compound 27
Compound 3 is prepared and purified by column as described in Example 5. 30 mg of compound 3 are dissolved in 600 μL of D2O, the solution is transferred to an NMR tube, which is stored at ambient temperature. The conversion is monitored by ^1H NMR.

Series [4] in a line: Hydrolysis of compound 3 in water at 90° C. in air, monitored by HPLC. Particulars: after 7 h. The procedure: c) Preparation of the compound L-5-sulfanyl-α,N,N,N(trimethyl)-histidine (compound 26) by hydrolysis of the 5-acylsulfanyl compound 3
Compound 3 is prepared and purified by column as described in Example 5. 170 mg (0.6 mmoles) of compound 3 are dissolved in 10 mL of water, and the solution is heated at 90° C. in air for 7 h. The conversion is monitored by HPLC. The hydrolysis of compound 3 is complete after 7 h. The solution is evaporated to dryness. The residue is dissolved in a mixture of 5 mL of methanol and 93 mg (0.6 mmol) of dithiothreitol. After stirring for 4 h under an inert atmosphere, 2 mL of ethanol are added. A precipitate forms immediately, which is filtered and washed with ethanol (2×2 mL), then with ethyl ether (2×2 mL). After drying, 104 mg (72%) of L-5-sulfanyl-α,N,N,N(trimethyl)-histidine are obtained in the form of a beige powder.

Take `CC(=O)Sc1nc[nH]c1C[C@@H](C(=O)[O-])[N+](C)(C)C` [Compound 3, L-5-acetylsulfanyl-α,N,N,N(trimethyl)-histidine]: the results for the “hydrolysis of compound 3 (extent, in words)” value in series [1] (after 2 days), in series [3] (after 2 days) and in series [4] were “nearly complete”, “nearly complete” and “complete”, respectively. The “yield of compound 27 from hydrolysis and in situ oxidation of compound 3” value in series [1] (after 2 days) came out at 80%. Also, the “% hydrolysis” value in series [1] (t = 0 h) is recorded as 0%; in series [1] (t = 2 j), 95%; in series [1] (t = 2 h), 7%; in series [1] (t = 4 h) it was 21%; in series [1] (t = 6 h), 38%; in series [1] (t = 8 h), 60%. For the same compound, the “% hydrolysis” value in series [1] (t = 18 h) worked out at 85%; in series [3] (t = 0 h), 0%; in series [3] (t = 2 j) it was 86%; in series [3] (t = 2 h), 19%; in series [3] (t = 10 h) it was 26%. Besides, the “yield of compound 26 formed from compound 3” value in series [2] (after 3 h 30, HPLC-ELSD) was found to be 97%. The “yield of hydrolysis of compound 3” value in series [2] (after 3 h, 1H NMR) was determined as 90%.
